Data reported in PMC9883482, “TPX2 enhances the transcription factor activation of PXR and enhances the resistance of hepatocellular carcinoma cells to antitumor drugs” (Cell Death & Disease, 2023).
pIC50: −log10 of the molar value.

Assays:
[1] = tested on: MHCC97-H cells; assay: MTT cell survival examination; format: cell-based; details: Homo sapiens, MHCC97H, 48 h
Description: (§1) In the process of dissolving these pure drug powders, stirring, vortexing, and ultrasonic vibration were used to assist dissolution [17, 18]. After a drug was fully dissolved, Dulbecco’s modified Eagle’s medium (DMEM) without fetal bovine serum (FBS) was used to dilute the drug dissolved in DMSO. For doxorubicin, we used DMEM without FBS to dissolve the drug. When performing cell viability experiments (tetrazolium [MTT] assays), these drugs were diluted.
(§2) The antitumor activity of antitumor drugs injuring HCC cells was examined by using MTT assay. After culturing the HCC cells, transfection experiments were performed, and the cells were then seeded in 96-well cell culture plates (about 8000 cells per well). […] After the cells were treated with the drug for about 48 h, a dose of […] tetrazolium (MTT) reagent was added, and cells with the MTT reagent were incubated for 5 to 6 h. After incubation with the MTT was complete, all liquid in the 96-well cell culture plate was discarded, and about 100 μl of DMSO was added to each well to dissolve the cell samples. During the process of lysing the cell samples, the cell culture plate was shaken for 15 minutes to completely lyse the cells. After the lysis step was complete, the cell culture plate was centrifuged at 12,000 rpm at 4 °C, and the supernatant was collected for evaluation.
(§3) All statistical analyses in the presence work were performed using the GraphPad 8.0 (GraphPad Software Corporation, Armonk, NY, USA). […] For the survival analysis data, the survival curves were analyzed by the log-rank (Mantel–Cox) test to detect the P-value of the survival curve, the median survival time, and the 95% confidence interval (CI). For the co-relationship analysis, the data were analyzed by linear regression to determine the overall trend of a group of data points. […] If the slope was positive, the horizontal coordinate was positively related to the vertical coordinate, and if the slope was negative, the horizontal coordinate was negatively related to the vertical coordinate. For the multi-grouped data, the ordinary one-way analysis of variance (ANOVA) and multiple comparison methods were used. An ANOVA was used to examine whether any difference between groups could be detected. The multiple comparisons (t-test) was used to detect differences between pairs of data.

[2] = tested on: HepG2 cells; assay: MTT cell survival examination; format: cell-based; details: Homo sapiens, HepG2, 48 h
Description: as §1, §2, §3

[3] = tested on: MHCC97-L cells; assay: MTT cell survival examination; format: cell-based; details: Homo sapiens, MHCC97L, 48 h, median (95% CI)
Description: as §1, §2, §3

[4] = molecular target: T1, PXR (Homo sapiens, UniProt O75469); details: in combination with rifampicin
T1 sequence (O75469 1-434): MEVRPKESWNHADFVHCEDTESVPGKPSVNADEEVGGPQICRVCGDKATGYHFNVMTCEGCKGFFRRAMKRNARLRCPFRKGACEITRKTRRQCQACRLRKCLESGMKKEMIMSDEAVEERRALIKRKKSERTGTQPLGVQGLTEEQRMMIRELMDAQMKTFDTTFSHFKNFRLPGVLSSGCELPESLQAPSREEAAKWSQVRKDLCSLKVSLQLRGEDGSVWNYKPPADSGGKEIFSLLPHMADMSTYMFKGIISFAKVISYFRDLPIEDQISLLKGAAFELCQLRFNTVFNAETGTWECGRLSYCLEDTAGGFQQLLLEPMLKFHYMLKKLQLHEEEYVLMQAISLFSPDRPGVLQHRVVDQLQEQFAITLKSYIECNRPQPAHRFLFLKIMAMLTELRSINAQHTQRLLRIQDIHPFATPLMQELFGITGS

[5] = tested on: cyp3a4 and mdr-1 mRNA (PXR downstream genes); details: human
[6] = HepG2, Control, median (95% CI)
[7] = HepG2, TPX2 overexpression, median (95% CI)

Compound	pIC50 ([1]; Control, median (95% CI))	pIC50 ([1]; siTPX2, median (95% CI))	pIC50 [2, 6]	pIC50 [2, 7]	pIC50 ([2]; HepG2, siTPX2, median (95% CI))	pIC50 ([3]; Control)	pIC50 ([3]; TPX2 overexpression)	effect on TPX2/rifampicin-driven PXR recruitment to cyp3a4 promoter or enhancer [4]	effect on rifampicin- and TPX2-induced transcription of PXR downstream genes (mRNA levels) [5]
COc1cc2nccc(Oc3ccc(NC(=O)C4(C(=O)Nc5ccc(F)cc5)CC4)cc3)c2cc1OC [cabozantinib]	6.12	6.59	6.06	5.32	6.41	5.83	5.30	–	–
COc1cc2nccc(Oc3ccc(NC(=O)NC4CC4)c(Cl)c3)c2cc1C(N)=O [lenvatinib]	5.97	6.30	5.89	5.23	6.48	5.71	5.24	–	–
CC(=O)O[C@H]1C(=O)[C@@]2(C)[C@H]([C@H](OC(=O)c3ccccc3)[C@]3(O)C[C@H](OC(=O)[C@H](O)[C@@H](NC(=O)c4ccccc4)c4ccccc4)C(C)=C1C3(C)C)[C@]1(OC(C)=O)CO[C@@H]1C[C@@H]2O [paclitaxel]	7.90	8.38	7.83	6.62	8.08	7.66	6.82	–	–
CC[C@]1(O)C[C@H]2CN(CCc3c([nH]c4ccccc34)[C@@](C(=O)OC)(c3cc4c(cc3OC)N(C=O)[C@H]3[C@@](O)(C(=O)OC)[C@H](OC(C)=O)[C@]5(CC)C=CCN6CC[C@]43[C@@H]65)C2)C1 [vincristine]	–	–	–	–	–	–	–	almost blocked	–
CNC(=O)c1cc(Oc2ccc(NC(=O)Nc3ccc(Cl)c(C(F)(F)F)c3)c(F)c2)ccn1 [regorafenib]	6.00	6.12	6.00	5.44	6.21	5.82	5.31	–	–
CCc1c2c(nc3ccc(OC(=O)N4CCC(N5CCCCC5)CC4)cc13)-c1cc3c(c(=O)n1C2)COC(=O)[C@]3(O)CC [irinotecan]	6.28	6.80	6.52	6.09	7.00	6.37	6.01	–	–
COc1cc([C@@H]2c3cc4c(cc3[C@@H](O[C@@H]3O[C@@H]5CO[C@@H](C)O[C@H]5[C@H](O)[C@H]3O)[C@H]3COC(=O)[C@H]23)OCO4)cc(OC)c1O [etoposide]	6.60	7.00	6.34	5.71	6.74	6.42	5.88	–	–
COc1cccc2c1C(=O)c1c(O)c3c(c(O)c1C2=O)C[C@@](O)(C(=O)CO)C[C@@H]3O[C@H]1C[C@H](N)[C@H](O)[C@H](C)O1 [doxorubicin]	6.70	7.22	6.48	5.80	7.30	6.60	6.09	–	–
CC(=O)N1CCN(c2ccc(OCC3COC(Cn4ccnc4)(c4ccc(Cl)cc4Cl)O3)cc2)CC1 (stereo not drawn) [ketoconazole]	–	–	–	–	–	–	–	–	almost blocked the effects of rifampicin and TPX2
